PubChem BioAssay AID2060886 (Molecular Pharmacology Branch, DTP, NCI, 2025)

Test system: 653999-131-R-J2-PDC complex spheroids, growth inhibition
Assay: Anticancer human tumor 653999-131-R-J2-PDC patient-derived lung adenocarcinoma cell line growth inhibition [RAS]
Conditions: for IC50: curve of first compound; for viability, T/C: stronger effect = lower value; active = viability on the fitted dose curve at most 10% of control; inactive = the rest
Source text: RAS pathway inhibitors in Combinations in Complex Spheroids
A high-throughput screen of multi-cell type tumor spheroids was designed to identify active combinations of RAS pathway inhibitors and targeted small molecules. Complex spheroids include a stromal component modeled by human endothelial cells (HUVEC) and fibroblasts modeled by human mesenchymal stem cells (MSCs). The concentration ranges selected for each drug and investigational agent were based upon clinically achievable concentrations if the clinical Cmax of the agent was known.
Compounds. The drugs and investigational agents: abemaciclib (NSC768073), cobimetinib (NSC768068), divarasib (GDC6063, NSC841802), docetaxel (NSC628503), GDC-1971 (RLY-1971, NSC841576), gemcitabine (NSC613327), inavolisib (NSC800729), ipatasertib (NSC767898), KB-0742 (NSC834161), MRTX-1133 (NSC836407), osimertinib (NSC779217), RMC-4630 (NSC839698), RMC-6236 (NSC851965), RMC-6291 (NSC852671), Ro-3306 (NSC812927), sapanisertib (NSC764658), SN-38 (NSC673596), staurosporine (NSC755774), SY5609 (NSC837396), and tovorafenib (DAY101, NSC766906), were obtained from the National Cancer Institute (NCI) Developmental Therapeutics Program Chemical Repository. The FDA-approved anticancer drug set is available from the NCI Developmental Therapeutics Program. […] The stock solutions were prepared in dimethyl sulfoxide (DMSO, Sigma-Aldrich, St. Louis, MO, cat. D2650) at 800-fold the tested concentration and stored at -70 degrees C prior to their use. All drugs and investigational agents were tested over a range starting from a high concentration at or near the clinical Cmax and decreasing in half-log increments. If the clinical Cmax for an agent had not been determined, the highest concentration tested was 10 microM.
Cell Culture. All cells were maintained in an incubator at 37 degrees C and 5% CO2 with 95% humidity. The PDC lines were cultured according to standard operating procedures established by the NCI PDMR. All PDCs were thawed and cultured in Matrigel-coated flasks prepared with a working solution of 1X Ham's F-12 nutrient mix, without supplementation (Invitrogen, Waltham, MA, cat. 11765054), 100 U/mL penicillin-streptomycin (Invitrogen, cat. 15140122), and 2.5% Matrigel (Corning Inc., Corning, NY, cat. 354248) for the first three passages. The 362531-283-R-J2-PDC and 782815-120-R-J1-PDC lines were cultured in 6C/Colon 1B media, which includes advanced DMEM/F-12 (Thermo Fisher Scientific, cat. 12634028), 10 mM HEPES (Thermo Fisher Scientific, cat. 15630080), 1X GlutaMAX supplement (Thermo Fisher Scientific, cat. 35050061), 0.1 mg/mL primocin (InvivoGen, San Diego, CA, cat. ant-pm-2), 10% defined fetal bovine serum, heat inactivated (HyClone Laboratories Inc., Logan, UT, cat. SH30070.03HI), 50% L-WRN conditioned media (ATCC, cat. CRL-3276), 1.25 mM N-Acetyl-L-cysteine (Sigma-Aldrich, cat. A9165), 10 mM nicotinamide (Sigma-Aldrich, cat. N0636), 1X B-27 supplement (Thermo Fisher Scientific, cat. 17504044), 1X N-2 supplement (Thermo Fisher Scientific, cat. 17502048), 50 ng/mL human EGF (Thermo Fisher Scientific, cat. PHG0311), and 10 microM Y-27632 dihydrochloride (Tocris Bioscience, cat. 1254). The K12877-001-R-J1-PDC line was cultured in 6I media, which includes all 6C/Colon 1B media plus 10 ng/mL human FGF-10 (PeproTech, cat. 100-26), 1 ng/mL human FGF-2 (PeproTech, cat. 100-18B), 1 µM prostaglandin E2 (Tocris Bioscience, cat. 2296), […] hydrocortisone (Sigma-Aldrich, cat. H4001), and […] bovine insulin (Sigma-Aldrich, cat. I6634). The K86415-001-R-J1-PDC line was cultured in 6D media, which includes all 6C/Colon 1B media components minus the L-WRN conditioned media. The 485176-168-R4-J1-PDC was cultured in PANC media, which includes all 6C/Colon 1B media plus 100 ng/mL human FGF-10 (PeproTech, cat. 100-26), 500 nM SB-431542 (Selleckchem, cat. S1067), and 10 nM gastrin (Tocris Bioscience, cat. 3006). […]

[1] = second compound 0.0316 µM, first compound 0.0316 µM
[2] = second compound 0.0316 µM, first compound 0.1 µM
[3] = second compound 0.0316 µM, first compound 0.316 µM
[4] = second compound 0.0316 µM, first compound 1 µM
[5] = second compound 0.1 µM, first compound 0.0316 µM
[6] = second compound 0.1 µM, first compound 0.1 µM
[7] = second compound 0.1 µM, first compound 0.316 µM
[8] = second compound 0.1 µM, first compound 1 µM
[9] = second compound 0.316 µM, first compound 0.0316 µM
[10] = second compound 0.316 µM, first compound 0.1 µM
[11] = second compound 0.316 µM, first compound 0.316 µM
[12] = second compound 0.316 µM, first compound 1 µM
[13] = second compound 1 µM, first compound 0.0316 µM
[14] = second compound 1 µM, first compound 0.1 µM
[15] = second compound 1 µM, first compound 0.316 µM
[16] = second compound 1 µM, first compound 1 µM
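Also: spheroids exposed to the agents for seven days before the readout.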

O=C(c1ccc(F)c(F)c1Nc1ccc(I)cc1F)N1CC(O)([C@@H]2CCCCN2)C1 + C=CC(=O)N1CCN(c2nc(OCC3CCCN3C)nc3c(F)c(-c4nc(N)cc(C)c4C(F)(F)F)c(Cl)cc23)C(C)C1
87.3 nM: IC50 (second compound 0.316 µM)
inactive: viability, T/C (second compound 0.00316 µM, first compound 0.00316 µM) 86.1% | viability, T/C (second compound 0.00316 µM, first compound 0.01 µM) 83.1% | viability, T/C (second compound 0.00316 µM, first compound 0.0316 µM) 63.8% | viability, T/C (second compound 0.00316 µM, first compound 0.1 µM) 53.6% | viability, T/C (second compound 0.00316 µM, first compound 0.316 µM) 25% | viability, T/C (second compound 0.01 µM, first compound 0.00316 µM) 94.1% | viability, T/C (second compound 0.01 µM, first compound 0.01 µM) 83.3% | viability, T/C (second compound 0.01 µM, first compound 0.0316 µM) 53.2% | viability, T/C (second compound 0.01 µM, first compound 0.1 µM) 37.7% | viability, T/C (second compound 0.01 µM, first compound 0.316 µM) 24.1% | viability, T/C (second compound 0.01 µM, first compound 1 µM) 8.42% | viability, T/C (second compound 0.0316 µM, first compound 0.00316 µM) 105% | viability, T/C (second compound 0.0316 µM, first compound 0.01 µM) 86.6% | viability, T/C [1] 74.8% | viability, T/C [2] 57.6% | viability, T/C [3] 22.4% | viability, T/C (second compound 0.1 µM, first compound 0.00316 µM) 96.9% | viability, T/C (second compound 0.1 µM, first compound 0.01 µM) 80.5% | viability, T/C [5] 60.6% | viability, T/C [6] 40.5% | viability, T/C [7] 29% | viability, T/C [8] 9.39% | viability, T/C (second compound 0.316 µM, first compound 0.00316 µM) 84.4% | viability, T/C (second compound 0.316 µM, first compound 0.01 µM) 69.9% | viability, T/C [9] 65.8% | viability, T/C [10] 51.2% | viability, T/C [11] 24.5% | viability, T/C (second compound 1 µM, first compound 0.00316 µM) 100% | viability, T/C (second compound 1 µM, first compound 0.01 µM) 79% | viability, T/C [13] 60.3% | viability, T/C [14] 48.8% | viability, T/C [15] 25.8% | viability, T/C [16] 11%
63.8 nM: IC50 (second compound 0.1 µM)
active: viability, T/C (second compound 0.00316 µM, first compound 1 µM) 10.2% | viability, T/C [4] 7.31% | viability, T/C [12] 9.08%
111 nM: IC50 (second compound 0.0316 µM)
49.2 nM: IC50 (second compound 0.01 µM)
96.1 nM: IC50 (second compound 0.00316 µM)
70.3 nM: IC50 (second compound 1 µM)

CC1(O)CCCC1n1c(=O)c(C(F)F)cc2cnc(NC3CCN(S(C)(=O)=O)CC3)nc21 (centres undefined) + C#Cc1c(F)ccc2cc(O)cc(-c3ncc4c(N5CC6CCC(C5)N6)nc(OCC56CCCN5CC(F)C6)nc4c3F)c12
4780 nM: IC50 (second compound 0.0316 µM)
< 31.6 nM: IC50 (second compound 0.316 µM) | IC50 (second compound 1 µM) | IC50 (second compound 3.16 µM) | IC50 (second compound 10 µM)
inactive: viability, T/C [1] 71.3% | viability, T/C [2] 54.8% | viability, T/C [3] 62.4% | viability, T/C [4] 57.2% | viability, T/C (second compound 0.0316 µM, first compound 3.16 µM) 63.1% | viability, T/C (second compound 0.0316 µM, first compound 10 µM) 29.6% | viability, T/C [5] 69.4% | viability, T/C [6] 49.9% | viability, T/C [7] 51.2% | viability, T/C [8] 52.1% | viability, T/C (second compound 0.1 µM, first compound 3.16 µM) 58.4% | viability, T/C (second compound 0.1 µM, first compound 10 µM) 24.7% | viability, T/C [9] 49.4% | viability, T/C [10] 42.7% | viability, T/C [11] 42.6% | viability, T/C [12] 45.5% | viability, T/C (second compound 0.316 µM, first compound 3.16 µM) 49.2% | viability, T/C (second compound 0.316 µM, first compound 10 µM) 27.7% | viability, T/C [13] 40.5% | viability, T/C [14] 31.4% | viability, T/C [15] 32.7% | viability, T/C [16] 34.3% | viability, T/C (second compound 1 µM, first compound 3.16 µM) 34.4% | viability, T/C (second compound 1 µM, first compound 10 µM) 24.5% | viability, T/C (second compound 3.16 µM, first compound 0.0316 µM) 29.6% | viability, T/C (second compound 3.16 µM, first compound 0.1 µM) 25.5% | viability, T/C (second compound 3.16 µM, first compound 0.316 µM) 21.6% | viability, T/C (second compound 3.16 µM, first compound 1 µM) 23% | viability, T/C (second compound 3.16 µM, first compound 3.16 µM) 31.4% | viability, T/C (second compound 3.16 µM, first compound 10 µM) 20.7% | viability, T/C (second compound 10 µM, first compound 0.0316 µM) 23.2% | viability, T/C (second compound 10 µM, first compound 0.1 µM) 17.1% | viability, T/C (second compound 10 µM, first compound 0.316 µM) 20.6% | viability, T/C (second compound 10 µM, first compound 1 µM) 19.7% | viability, T/C (second compound 10 µM, first compound 3.16 µM) 25.6% | viability, T/C (second compound 10 µM, first compound 10 µM) 22.7%
3960 nM: IC50 (second compound 0.1 µM)
